Experimental data taken from patent US11111500B2, “Mutated protoporphyrinogen IX oxidase (PPX) genes” (CIBUS US LLC, priority 2010, dated 2021).

Key:
potato plastidal PPX = assay: Tolerance to saflufenacil of HemG mutant E. coli complemented with potato plastidal PPX (plate based selection, colony count); assay type: cell-based, Solanum tuberosum
From the text: StcPPX1, less its chloroplast transit peptide was cloned from cDNA into Cibus' proprietary functional screening vector. This vector may be used both for functional screening, and for GRON QC. The potato PPX genes were used to complement the HemG mutant strain of E. coli, which lacks a functional HemG gene, a bacterial homolog of PPX. Without a complementing gene, the media must be supplemented with hematin for E. coli growth.
In order to assess mutations that confer tolerance to PPX inhibitors such as Chateau (flumioxazin-Valent/Sumitomo), Naja (diphenylether—MAI) or Kixor (saflufenacil—BASF). Pure active ingredients for the PPX inhibiting herbicides Chateau (flumioxazin—Valent/Sumitomo), Spartan (sulfentrazone—FMC) and Kixor/Sharpen (saflufenacil—BASF) were obtained. […] This was further refined, and 0.75 mM sulfentrazone was also used to select for tolerance. […] All potato mitochondrial PPX genes and alleles were tested for natural tolerance to sulfentrazone and flumioxazin, but none were tolerant.
Tolerance of all possible amino acid substitutions at each position displaying tolerance to sulfentrazone or flumioxazin were tested. Next, single amino acid substitutions were combined in all permutations and combinations to assess complementation and herbicide tolerance.

[1] = test system: leaf disc explants of in vitro grown potato plants; assay: Leaf disk kill curve (callus formation in leaf disc explants); assay type: cell-based; settings: solid Haberlach culture medium, 1% DMSO
Description: Aimed at establish the concentration of sulfentrazone that will inhibit callus formation in leaf disc explants, leaf discs were punched with a sterile hole punch from 5 weeks old in vitro grown potato plants. The leaf discs were cultured in petri dishes containing solid Haberlach culture medium containing various concentrations of Sulfentrazone in a final concentration of 1% DMSO. Six leaf discs cultured at each herbicide concentration. Plates were sealed with micropore tape and incubated at room temperature (approximately 23° C.). In an initial experiment, 7.8 μM sulfentrazone, the lowest concentration tested in that experiment, was sufficient to stop callus formations and bleach all leaf discs within 20 days. […] Similar leaf disc kill curve experiments were performed using saflufenacil where 0.5 μM of this herbicide was sufficient to inhibit callus formation in almost all leaf discs after 20 days.

CC(C)N(C)S(=O)(=O)NC(=O)c1cc(-n2c(=O)cc(C(F)(F)F)n(C)c2=O)c(F)cc1Cl [saflufenacil]
saflufenacil concentration with no growth of the wildtype construct (potato plastidal PPX): 0.3 mM
concentration sufficient to inhibit callus formation in almost all leaf discs after 20 days [1]: 0.5 µM
